Assay [1] concerns the target T1, recombinant rat L-type calcium channel (LTCC) subunits (α1c, α2δ, and β1) (Rattus norvegicus, UniProt P22002).
T1 construct: expressed in transfected cells; pcDNA6.2DEST α1c, pcDNA3.2DEST β1, pcDNA3.1-Zeo α2δ)
Nature of the assay: FLIPR calcium mobilization assay for L-type calcium channel. Particulars: calcium mobilization in vitro assay; HEK293 cells stably expressing LTCC, 90 mM KCl. It is filed as cell-based. Here is the method:
Recombinant human embryonal kidney cells (HEK293, ATCC) stably transfected with either N-type calcium channel (NTCC) subunits (α1b, α2δ, and β3) or L-type calcium channel (LTCC) subunits (α1c, α2δ, and β1) were routinely cultured in growth medium consisting of Dulbecco's Modified Eagles Medium containing 10% FBS, 100 U/mL penicillin, 100 μg/mL streptomycin, 4 mM L-glutamine, 500 μg/mL geneticin (G418), 20 μg/mL Blasticidin S (InVivogen, San Diego, Calif.) and 500 μg/mL zeocin (InVivogen).
FLIPR Calcium Mobilization Assay for L-type Calcium Channel. One day prior to performing this assay, HEK293 cells stably expressing recombinant rat L-type calcium channel (LTCC) subunits (α1c, α2δ, and β1) were trypsinized, then seeded on poly-D-lysine-coated 96-well clear-bottom black plates (Becton Dickinson, Franklin Lakes, N.J.) at 75,000 cells/well. On the day of the assay, the plates were washed with LTCC wash buffer (127 mM NaCl, 2 mM MgCl2, 700 μM NaH2PO4, 5 mM CaCl2, 5 mM NaHCO3, 8 mM HEPES, 10 mM glucose, pH 7.4), then loaded with 0.1 mL of LTCC wash buffer containing Fluo-4 (3 μM final concentration, Molecular Probes, Eugene, Oreg.). After 1 hour, the cells were washed with 0.1 mL LTCC wash buffer and resuspended in 0.05 mL LTCC assay buffer (same composition as LTCC wash buffer). Plates were then transferred to a FLIPR^96 for assay. The FLIPR measured basal Fluo-4 fluorescence for 15 seconds, then added 0.05 mL of each compound tested diluted in LTCC assay buffer at final concentrations ranging from about 846 pM to about 17 μM. Fluo-4 fluorescence was then measured for 5 minutes. 0.1 mL KCl agonist dissolved in LTCC assay buffer was then added to the cells to produce a final concentration of 90 mM KCl, and fluorescence was measured for another 45 seconds. Data were collected over the entire time course and analyzed using Excel, Graph Pad Prism, or an in-house regression analysis software.
L-type Recombinant Cell Line Development. L-type calcium channel expressing HEK-293 cells were created in two stages. Stage 1 was created as follows. The rat α1c, and β1 cDNA expression constructs (2.5 μg each) were co-transfected into human embryonic kidney (HEK-293) cells by Lipofectamine Plus reagent (Invitrogen), as per manufacturer's instructions. 24 hours later, cells were split in limiting dilution into multiple 96-well plates in selection media containing 20 μg/mL blasticidin and 500 μg/mL geneticin, and incubated for 3 weeks at 37° C., 5% CO2, 95% humidity. Plates containing ≦1 clone per well were cultured until wells positive for single clones were confluent. Individual clones were then arrayed into columns of a destination 96-well plate, and partly split into 6-well plates for culture maintenance. Array plates were washed once with LTCC wash (or assay) buffer and cells loaded for 1 hour with 0.1 mL of LTCC buffer containing Fluo-4 (3 μM final concentration, Molecular Probes). Then they were washed twice with 0.1 mL of LTCC buffer, and replaced with 0.1 mL LTCC buffer. Plates were then transferred to a FLIPR^96 for assay. The FLIPR measured basal Fluo-4 fluorescence for 315 seconds, then added 0.1 mL KCl agonist dissolved in LTCC buffer and measured fluorescence for another 45 seconds. Final KCl concentration was 90 mM. Data were collected over the entire time course and analyzed using Excel, Graph Pad Prism, or Activity Base software. The clone with the greatest signal-to-noise ratio, best stability of response with passage number, and best adhesion to PDL precoated plates (Becton Dickinson) was expanded, characterized and used for stage 2 cell line development.
Stage 2 of L-type cell line development was carried out as follows. The rat α2δ cDNA expression construct (5 μg each) was transfected into the stage 1 L-type clonal cell line by Lipofectamine Plus reagent (Invitrogen), as per manufacturer's instructions. […]
Background: A change in cytosolic calcium serves as a functional read-out for many receptors and channels.

Assay [2] concerns the target T2, N-type calcium channel (NTCC) (Homo sapiens, UniProt Q00975).
T2 construct: endogenous in cells; host or cells: IMR32 cells (ATCC), differentiated with dibutyryl cAMP and bromodeoxyuridine
Nature of the assay: FLIPR calcium mobilization assay for N-type calcium channel. It is filed as cell-based. Particulars: calcium mobilization in vitro assay; differentiated IMR32 cells, 90 mM KCl, 5 μM nitrendipine. Here is the method: Cell maintenance and differentiation. Unless noted otherwise, cell culture reagents were purchased from Mediatech of Hemdon, Md. IMR32 cells (American Type Culture Collection, ATCC, Manassas, Va.) were routinely cultured in growth medium consisting of minimum essential medium containing 10% fetal bovine serum (FBS, Hyclone, Logan, Utah), 100 U/mL penicillin, 100 μg/mL streptomycin, 2 mM L-glutamine, 1 mM sodium pyruvate, and 1×MEM non-essential amino acids. 80-90% confluent flasks of cells were differentiated using the following differentiation medium: Growth medium plus 1 mM dibutyryl cyclic AMP (Sigma, St. Louis, Mo.), and 2.5 μM bromodeoxyuridine (Sigma). Cells were differentiated for 8 days by replacing differentiation medium every 2-3 days.
FLIPR Calcium Mobilization Assay for N-type Calcium Channel. One day prior to performing this assay, differentiated IMR32 cells were treated with 1× CellStripper, and seeded on poly-D-lysine-coated 96-well clear-bottom black plates (Becton Dickinson, Franklin Lakes, N.J.) at 200,000 cells/well. On the day of the assay, the cell plates were washed with IMR32 buffer (127 mM NaCl, 1 mM KCl, 2 mM MgCl2, 700 μM NaH2PO4, 5 mM CaCl2, 5 mM NaHCO3, 8 mM HEPES, 10 mM glucose, pH 7.4), then pre-stimulated with KCl and loaded as follows: 0.05 mL of IMR32 buffer, 0.05 mL of each compound tested diluted in IMR32 buffer containing 20 μM nitrendipine (Sigma), and 0.1 mL KCl dissolved in IMR32 buffer, plus Fluo-4 were added (3 μM final concentration, Molecular Probes, Eugene, Oreg.). Final test compound concentrations ranged from about 846 μM to about 17 μM, final nitrendipine concentration was 5 μM, and final KCl concentration was 90 mM. After 1 hour, the cells were washed twice with 0.05 mL of each compound tested in nitrendipine-containing IMR32 buffer (no KCl or Fluo-4), and then replaced with 0.1 mL of each compound tested in nitrendipine-containing IMR32 buffer. Plates were then transferred to a Fluorimetric Imaging Plate Reader (FLIPR^96, Molecular Devices, Inc., Sunnyvale, Calif.) for assay. The FLIPR measured basal Fluo-4 fluorescence for 315 seconds (i.e., 5 minutes and 15 seconds), then added 0.1 mL KCl agonist dissolved in IMR32 buffer and measured fluorescence for another 45 seconds. Final test compound concentrations on the cells after FLIPR read ranged from about 846 μM to about 17 μM, final nitrendipine concentration was 5 μM, and final KCl concentration was 90 mM. Data were collected over the entire time course and analyzed using Excel, Graph Pad Prism (version 3.02, Graph Pad, San Diego, Calif.), or an in-house non-linear regression analysis software.

A value given as a limit tells only on which side of the number the result lay.

A word on the IC50: it is the concentration that gives 50% inhibition.

T1 sequence (P22002 whole entry): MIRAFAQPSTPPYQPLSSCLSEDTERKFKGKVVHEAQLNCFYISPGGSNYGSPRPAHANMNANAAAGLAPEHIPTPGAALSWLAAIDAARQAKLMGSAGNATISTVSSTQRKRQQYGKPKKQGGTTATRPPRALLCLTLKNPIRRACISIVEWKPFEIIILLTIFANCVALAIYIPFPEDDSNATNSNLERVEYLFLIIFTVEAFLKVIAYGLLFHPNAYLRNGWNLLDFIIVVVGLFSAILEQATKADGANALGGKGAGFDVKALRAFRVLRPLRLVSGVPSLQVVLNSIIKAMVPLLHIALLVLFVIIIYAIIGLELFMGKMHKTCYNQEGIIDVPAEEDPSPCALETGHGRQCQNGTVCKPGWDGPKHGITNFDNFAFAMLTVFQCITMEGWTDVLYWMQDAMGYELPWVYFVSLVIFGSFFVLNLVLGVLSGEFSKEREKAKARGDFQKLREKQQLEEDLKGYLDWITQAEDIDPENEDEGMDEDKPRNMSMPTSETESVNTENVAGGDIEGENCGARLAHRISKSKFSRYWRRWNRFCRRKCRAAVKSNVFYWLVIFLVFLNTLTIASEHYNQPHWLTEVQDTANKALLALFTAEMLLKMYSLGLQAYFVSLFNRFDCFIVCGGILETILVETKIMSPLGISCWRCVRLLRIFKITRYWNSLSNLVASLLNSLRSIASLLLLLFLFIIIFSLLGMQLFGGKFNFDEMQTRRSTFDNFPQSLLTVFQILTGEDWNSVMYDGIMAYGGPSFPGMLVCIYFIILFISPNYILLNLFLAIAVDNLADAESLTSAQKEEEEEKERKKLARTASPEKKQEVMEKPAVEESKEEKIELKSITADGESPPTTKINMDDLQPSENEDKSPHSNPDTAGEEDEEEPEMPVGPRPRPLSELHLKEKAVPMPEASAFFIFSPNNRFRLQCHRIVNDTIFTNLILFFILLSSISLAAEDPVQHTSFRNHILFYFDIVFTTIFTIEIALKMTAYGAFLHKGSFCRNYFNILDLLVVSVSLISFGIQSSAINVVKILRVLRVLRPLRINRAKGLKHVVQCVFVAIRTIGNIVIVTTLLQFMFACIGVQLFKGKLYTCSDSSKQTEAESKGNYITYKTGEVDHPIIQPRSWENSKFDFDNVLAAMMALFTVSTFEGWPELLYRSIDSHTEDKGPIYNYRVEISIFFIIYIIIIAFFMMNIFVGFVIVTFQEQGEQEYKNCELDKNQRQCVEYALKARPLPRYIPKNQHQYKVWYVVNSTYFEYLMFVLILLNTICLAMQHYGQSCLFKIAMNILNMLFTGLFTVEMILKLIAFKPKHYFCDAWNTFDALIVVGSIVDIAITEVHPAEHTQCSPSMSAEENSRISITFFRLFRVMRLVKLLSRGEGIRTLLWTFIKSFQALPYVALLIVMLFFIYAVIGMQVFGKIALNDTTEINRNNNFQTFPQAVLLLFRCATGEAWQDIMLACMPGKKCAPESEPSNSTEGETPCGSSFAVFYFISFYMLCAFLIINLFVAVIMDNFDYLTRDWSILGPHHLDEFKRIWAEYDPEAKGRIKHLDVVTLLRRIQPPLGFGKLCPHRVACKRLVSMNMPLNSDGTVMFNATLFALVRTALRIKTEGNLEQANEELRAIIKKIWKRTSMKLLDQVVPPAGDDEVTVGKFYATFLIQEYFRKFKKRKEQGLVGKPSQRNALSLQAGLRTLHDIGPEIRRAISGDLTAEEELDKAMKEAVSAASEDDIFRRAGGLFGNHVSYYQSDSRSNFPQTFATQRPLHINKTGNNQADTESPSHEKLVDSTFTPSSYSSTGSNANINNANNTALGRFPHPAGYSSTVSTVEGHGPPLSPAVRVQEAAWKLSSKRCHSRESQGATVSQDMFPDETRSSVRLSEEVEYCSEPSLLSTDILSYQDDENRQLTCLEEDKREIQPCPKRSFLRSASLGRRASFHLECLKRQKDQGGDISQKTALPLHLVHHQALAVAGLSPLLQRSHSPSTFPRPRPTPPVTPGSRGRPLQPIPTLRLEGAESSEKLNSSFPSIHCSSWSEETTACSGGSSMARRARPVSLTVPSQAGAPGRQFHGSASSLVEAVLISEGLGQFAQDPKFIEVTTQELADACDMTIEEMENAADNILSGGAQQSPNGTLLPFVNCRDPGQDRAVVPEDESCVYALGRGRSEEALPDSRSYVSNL
T1 sequence (P54290 25-944 partner): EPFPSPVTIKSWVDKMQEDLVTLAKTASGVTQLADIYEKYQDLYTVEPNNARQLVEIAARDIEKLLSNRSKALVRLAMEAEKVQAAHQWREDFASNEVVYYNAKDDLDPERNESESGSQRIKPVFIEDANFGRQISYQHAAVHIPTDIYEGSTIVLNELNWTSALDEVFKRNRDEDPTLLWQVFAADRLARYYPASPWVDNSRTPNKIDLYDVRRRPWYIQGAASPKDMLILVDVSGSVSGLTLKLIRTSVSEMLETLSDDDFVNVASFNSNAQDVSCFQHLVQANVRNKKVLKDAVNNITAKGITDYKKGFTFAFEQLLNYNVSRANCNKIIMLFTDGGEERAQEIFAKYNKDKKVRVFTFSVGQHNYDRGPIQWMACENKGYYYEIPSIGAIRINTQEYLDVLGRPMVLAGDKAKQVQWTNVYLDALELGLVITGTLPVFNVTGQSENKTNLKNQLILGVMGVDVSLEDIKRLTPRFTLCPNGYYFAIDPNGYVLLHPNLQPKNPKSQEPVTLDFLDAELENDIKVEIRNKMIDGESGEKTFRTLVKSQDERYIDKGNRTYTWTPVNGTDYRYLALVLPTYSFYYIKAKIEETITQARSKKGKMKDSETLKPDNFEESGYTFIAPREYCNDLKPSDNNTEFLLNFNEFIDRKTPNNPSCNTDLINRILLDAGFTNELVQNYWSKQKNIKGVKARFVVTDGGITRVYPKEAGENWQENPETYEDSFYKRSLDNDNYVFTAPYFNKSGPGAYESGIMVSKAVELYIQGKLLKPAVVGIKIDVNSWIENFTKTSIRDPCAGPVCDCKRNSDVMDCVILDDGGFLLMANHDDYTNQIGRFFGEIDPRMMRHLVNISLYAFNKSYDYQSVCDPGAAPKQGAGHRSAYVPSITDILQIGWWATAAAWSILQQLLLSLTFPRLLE
T1 sequence (P54290 945-1091 partner): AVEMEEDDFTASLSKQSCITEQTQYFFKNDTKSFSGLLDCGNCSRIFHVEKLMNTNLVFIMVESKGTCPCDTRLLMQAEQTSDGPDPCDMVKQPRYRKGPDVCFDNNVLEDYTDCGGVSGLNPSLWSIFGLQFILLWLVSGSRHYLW
T1 sequence (P54283 whole entry partner): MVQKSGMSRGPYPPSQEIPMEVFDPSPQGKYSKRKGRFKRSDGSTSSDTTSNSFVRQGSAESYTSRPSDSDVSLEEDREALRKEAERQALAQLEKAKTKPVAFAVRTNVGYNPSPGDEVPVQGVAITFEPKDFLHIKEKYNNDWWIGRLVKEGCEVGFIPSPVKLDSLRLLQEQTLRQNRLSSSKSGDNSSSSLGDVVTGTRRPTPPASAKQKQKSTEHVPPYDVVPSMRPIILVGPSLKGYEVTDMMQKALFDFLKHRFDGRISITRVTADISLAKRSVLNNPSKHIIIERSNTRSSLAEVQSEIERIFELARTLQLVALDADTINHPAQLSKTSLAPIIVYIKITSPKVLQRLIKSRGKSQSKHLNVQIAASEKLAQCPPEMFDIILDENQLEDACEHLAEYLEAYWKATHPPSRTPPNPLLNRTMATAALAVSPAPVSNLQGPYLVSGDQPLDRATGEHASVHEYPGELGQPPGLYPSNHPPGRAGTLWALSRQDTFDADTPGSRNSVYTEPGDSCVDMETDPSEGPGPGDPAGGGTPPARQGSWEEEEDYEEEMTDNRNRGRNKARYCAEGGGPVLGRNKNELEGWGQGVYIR

As to `CC(C)CNC(=O)CN1CCCC(N(C2CC2)S(=O)(=O)c2cccc(C(F)(F)F)c2)C1` (stereo not shown) [2-{3-[Cyclopropyl-(3-trifluoromethylbenzenesulfonyl)-amino]-piperidin-1-yl}-N-isobutyl-acetamide], the 50% inhibitory concentration (IC50) in assay [1] was found to be 9820 nM; in assay [2], 430 nM.
Take `O=C(CN1CCCC(N(C2CC2)S(=O)(=O)c2cccc(C(F)(F)F)c2)C1)Nc1ccc(F)cc1` (stereo not shown) [2-{3-[Cyclopropyl-(3-trifluoromethylbenzenesulfonyl)amino]-piperidin-1-yl}-N-(4-fluorophenyl)-acetamide]: the IC50 was determined as 6180 nM in assay [1] and 360 nM in assay [2].
For `CCN[C@@H](CC(C)C)C(=O)N1CCCC(N(C2CC2)S(=O)(=O)c2cccc(C(F)(F)F)c2)C1` (stereo partly drawn) [(2S)N-Cyclopropyl-N-[1-(2-ethylamino-4-methylpentanoyl)piperidin-3-yl]-3-trifluoromethylbenzenesulfonamide], in that order: 5070 nM and 130 nM.
Take `CC(C)C[C@H](NC(C)C)C(=O)N1CCCC(N(C2CC2)S(=O)(=O)c2cccc(C(F)(F)F)c2)C1` (stereo partly drawn) [(2S)N-Cyclopropyl-N-[1-(2-isopropylamino-4-methylpentanoyl)piperidin-3-yl]-3-trifluoromethylbenzenesulfonamide]: the IC50 in assay [2] was found to be 210 nM.
As to `CN[C@@H](CC(C)C)C(=O)N1CCCC(N(C2CC2)S(=O)(=O)c2cccc(C(F)(F)F)c2)C1` (stereo partly drawn) [(2S)N-Cyclopropyl-N-[1-(4-methyl-2-methylaminopentanoyl)-piperidin-3-yl]-3-trifluoromethylbenzenesulfonamide], the IC50 in assay [1] was found to be 6580 nM; in assay [2], 540 nM.
In the case of `CC(C)CCN[C@@H](CC(C)C)C(=O)N1CCCC(N(C2CC2)S(=O)(=O)c2cccc(C(F)(F)F)c2)C1` (stereo partly drawn) [(2S)N-Cyclopropyl-N-{1-[2-(3-methylbutyl)amino-4-methylpentanoyl]piperidin-3-yl}-3-trifluoromethylbenzenesulfonamide], the IC50 in assay [2] amounted to 360 nM.
On to `CC(C)C[C@H](N)C(=O)N1CCCC(N(C2CC2)S(=O)(=O)c2cccc(C(F)(F)F)c2)C1` (stereo partly drawn) [(2S)N-[1-(2-Amino-4-methylpentanoyl)piperidin-3-yl]-N-cyclopropyl-3-trifluoromethylbenzenesulfonamide], for which the IC50 in assay [1] came out at 6580 nM; in assay [2], 1100 nM.
The matching figures for `CC(C)C[C@H](N)CC(=O)N1CCCC(N(C2CC2)S(=O)(=O)c2cccc(C(F)(F)F)c2)C1` (stereo partly drawn) [(2S)N-[1-(3-Amino-5-methylhexanoyl)piperidin-3-yl]-N-cyclopropyl-3-trifluoromethylbenzenesulfonamide]: 500 nM and 280 nM.
Consider `O=C(CN1CCC(NS(=O)(=O)c2cccc(C(F)(F)F)c2)C1)Nc1ccc(F)cc1` (stereo not shown) [N-(4-Fluorophenyl)-2-[3-(3-trifluoromethylbenzenesulfonylamino)-pyrrolidin-1-yl]acetamide], for which, in assay [2], the IC50 is 1680 nM.
`O=C(CNCc1cccnc1)N1CCCC(N(C2CC2)S(=O)(=O)c2cccc(C(F)(F)F)c2)C1` (stereo not shown) [N-Cyclopropyl-N-(1-{2-[(pyridin-3-ylmethyl)amino]acetyl}-piperidin-3-yl)-3-trifluoromethylbenzenesulfonamide]: the IC50 was more than 20000 nM in assay [1] and 1200 nM in assay [2].
For `O=S(=O)(c1cccc(C(F)(F)F)c1)N(C1CC1)C1CCCN(CCCN(c2ccc(F)cc2)c2ccc(F)cc2)C1` (stereo not shown) [N-Cyclopropyl-N-(1-{3-[bis-(4-fluorophenyl)amino]propyl}piperidin-3-yl)-3-trifluoromethylbenzenesulfonamide], the IC50 in assay [2] was determined as 2220 nM.
With `CC(C)CNCC(=O)N1CCCC(N(C2CC2)S(=O)(=O)c2cccc(C(F)(F)F)c2)C1` (stereo not shown) [N-Cyclopropyl-N-[1-(2-isobutylaminoacetyl)piperidin-3-yl]-3-trifluoromethylbenzenesulfonamide], the values for the IC50 in assay [1] and in assay [2] were 5750 nM and 690 nM, respectively.
Regarding `CC(C)CNCCC(=O)N1CCCC(N(C2CC2)S(=O)(=O)c2cccc(C(F)(F)F)c2)C1` (stereo not shown) [N-Cyclopropyl-N-[1-(3-isobutylaminopropionyl)piperidin-3-yl]-3-trifluoromethylbenzenesulfonamide], the half-inhibitory concentration (IC50) in assay [1] came out at 5630 nM; in assay [2] it was 820 nM.
With `CC(C)NCCC(=O)N1CCCC(N(C2CC2)S(=O)(=O)c2cccc(C(F)(F)F)c2)C1` (stereo not shown) [N-Cyclopropyl-N-[1-(3-isopropylaminopropionyl)piperidin-3-yl]-3-trifluoromethylbenzenesulfonamide], the IC50 in assay [1] was 8770 nM; in assay [2], 630 nM.
The matching figures for `COc1ccc(CNCC(=O)N2CCCC(N(C3CC3)S(=O)(=O)c3cccc(C(F)(F)F)c3)C2)cc1` (stereo not shown) [N-Cyclopropyl-N-{1-[2-(4-methoxybenzylamino)acetyl]-piperidin-3-yl}-3-trifluoromethylbenzenesulfonamide]: 4650 nM and 420 nM.
Consider `O=C(CCNCCO)N1CCCC(N(C2CC2)S(=O)(=O)c2cccc(C(F)(F)F)c2)C1` (stereo not shown) [N-Cyclopropyl-N-{1-[3-(2-hydroxyethylamino)propionyl]piperidin-3-yl}-3-trifluoromethylbenzenesulfonamide], for which the IC50 in assay [2] came out at 2830 nM.
On the same count and under the same terms, then “(2S)N-Cyclopropyl-N-[1-(2-methylcarbonylpropylamino-4-methylpentanoyl)piperidin-3-yl]-3-trifluoromethylbenzenesulfonamide”, with 510 nM.

These data come from patent US8247442B2, “Benzenesulfonamide compounds and their use” (Purdue Pharma L.P., priority 2006, dated 2012).
